According to US20250214964A1, “COMPOUNDS DERIVED FROM 4-AMINO-N-(4-AMINOPHENYL) BENZAMIDE AND ANALOGUES AND USE THEREOF” (priority 2022, published 2025):

Assays:
[1] = Cytotoxicity on THP-1 cells; settings: human
Protocol: (§1) Furthermore, their cytotoxicity on human THP-1 cells was evaluated and the selectivity index (SI) of each compound was calculated (Table 1).

[2] = Cytotoxicity on L929 cells; type: cell-based; settings: mouse
[3] = test system: T. b. brucei drug-resistant strain B48; type: cell-based; settings: for RF resistance factor (EC50 T. b. B48/EC50 T. b. s427): value in parentheses
[4] = test system: epimastigotes of T. cruzi (CL strain lacZ); assay: microbe, parasite or virus in culture; type: cell-based; settings: Trypanosoma cruzi
[5] = test system: T. b. brucei wild strain s427; assay: T. b. brucei s427 bloodstream trypomastigotes, Alamar blue; type: cell-based
[6] = test system: HEK cells; assay: Cytotoxicity on HEK cells; settings: read-out: CC50 HEK; concentration that causes 50% cell death
[7] = test system: intracellular amastigotes of L. donovani (strain MHOM/ET/67/HU3); assay: L. donovani intracellular amastigotes in THP-1-derived macrophages, resazurin method; type: cell-based; settings: for SI selectivity index (EC50 THP-1/EC50 parasite (amastigote form)): THP-1 vs L. donovani amastigotes
Protocol: as §1

[8] = Microsomal stability, mouse liver microsomes; settings: reaction time up to 120 min
[9] = Microsomal stability, human liver microsomes, phase I; settings: reaction time up to 120 min

Question: What does the source list for `N=C(Nc1ccc(CCc2ccc(NC(=N)c3ccccn3)cc2)cc1)c1ccccn1` [Compound 17, N,N″-(ethane-1,2-diylbis(4,1-phenylene))dipicolinimidamide]?
Answer: EC50 [1]: > 50 µM; EC50 at 72 h [2]: > 200 µM

Question: Which “RF resistance factor (EC50 T. b. B48/EC50 T. b. s427)” value (from here on “RF resistance factor”) [3] does the source give for `N=C(N)c1ccc(/N=N/Nc2ccc(C(=N)N)cc2)cc1` [dimin., Diminazene] here?
Answer: The value was “(13.1)”.

Question: Which results are given for `O=C(Cn1ccnc1[N+](=O)[O-])NCc1ccccc1` [benzn, benznidazole]?
Answer: EC50 [4]: 25.3 ± 2.1 µM; EC50 at 72 h [2]: > 200 µM

Question: For `O=C(Nc1ccc(N=c2[nH]c3ccccc3[nH]2)c(Cl)c1)c1ccc(N=c2[nH]c3ccccc3[nH]2)cc1Cl` [Compound 1f, 4-((1H-benzo[d]imidazol-2(3H)-ylidene)amino)-N-(4-((1H-benzo[d]imidazol-2(3H)-ylidene)amino)-3-chlorophenyl)-2-clorobenzamide], which SI ([5]; HEK vs T. brucei) is on record?
Answer: The SI was 3.9.

Question: What about the EC50 ([5]; strain s427 of T. b. brucei) of the same molecule?
Answer: Its EC50 is 2.64 ± 0.09 µM.

Question: And the EC50 ([3]; strain B48 resistant to pentamidine and diminazene)?
Answer: Its EC50 is 2.93 ± 0.17 µM.

Question: And the “RF resistance factor” value [3]?
Answer: Its value is “(1.11)”.

Question: And the CC50 [6]?
Answer: The CC50 was 10.2 ± 0.3 µM.

Question: For `C[C@@H]1[C@H](O)[C@@H](C)/C=C/C=C/C=C/C=C/C=C/C=C/C=C/[C@H](O[C@@H]2O[C@H](C)[C@@H](O)[C@H](N)[C@@H]2O)C[C@@H]2O[C@](O)(C[C@@H](O)C[C@@H](O)[C@H](O)CC[C@@H](O)C[C@@H](O)CC(=O)O[C@H]1C)C[C@H](O)[C@H]2C(=O)O` [AmB, Amphotericin B], which “SI selectivity index (EC50 THP-1/EC50 parasite (amastigote form))” value [7] is on record?
Answer: The value was 116.0.

Question: With `c1ccc2[nH]c(=Nc3ccc(CCc4ccc(N=c5[nH]c6ccccc6[nH]5)cc4)cc3)[nH]c2c1` [Compound 13, 4,4′-(ethane-1,2-diyl)bis(N-(1H-benzo[d]imidazol-2(3H)-ylidene)aniline)] as the molecule, how does the EC50 ([7]; Leishmania donovani, Macrophage, read-out: EC50 L. donovani intracellular amastigotes) read?
Answer: Its EC50 is greater than 10 µM.

Question: Which “SI selectivity index (EC50 THP-1/EC50 parasite (amastigote form))” value [7] does the source give for `CCCCCCCCCCCCCCCCOP(=O)([O-])OCC[N+](C)(C)C` [MIL, Miltefosine] here?
Answer: The value was 28.8.

Question: With `N=C(N)c1ccc(OCCCCCOc2ccc(C(=N)N)cc2)cc1` [pent., Pentamidine] as the molecule, how does the “RF resistance factor” value [3] read?
Answer: The value was “(168)”.

Question: Which results are given for `O=C(O)Cc1ccccc1Nc1c(Cl)cccc1Cl` [diclofenac]?
Answer: metabolism by mouse liver microsomes (CD-1), in words [8]: slowly metabolised; metabolism by human liver microsomes, in words [9]: rapidly metabolised (high intrinsic clearance)
